Where “and” joins values, the source holds several entries; their conditions need not be identical. Identical values can stand only once. Inconclusive results and toxic doses are left out. Cut-off read from the data, not from the text of the source: active = T/C of 150% or more; inactive = T/C below 125%.
System: L1210 leukemia ip in BDF1 mice, survival T/C
Experiment: NCI In Vivo Anticancer Drug Screen. Data for tumor model L1210 Leukemia (intraperitoneal) in B6D2F1 (BDF1) mice
Settings: endpoint: mean survival time, higher = longer survival
Procedure, shortened: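 Transplantable tumor model; survival measured in treated vs vehicle control mice. Value = treated/control.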

[1] = dose: 50.0 mg/kg/injection, schedule: Q01DX001 (ip), vehicle: saline
[2] = dose: 100.0 mg/kg/injection, schedule: Q01DX001 (ip), vehicle: saline
[3] = dose: 200.0 mg/kg/injection, schedule: Q01DX001 (ip), vehicle: saline
[4] = dose: 100.0 mg/kg/injection, schedule: Q01DX009 (ip), vehicle: saline with Tween-80
[5] = dose: 200.0 mg/kg/injection, schedule: Q01DX009 (ip), vehicle: saline with Tween-80
[6] = dose: 400.0 mg/kg/injection, schedule: Q01DX009 (ip), vehicle: saline with Tween-80
[7] = dose: 400.0 mg/kg/injection, schedule: Q01DX001 (ip), vehicle: saline
[8] = dose: 100.0 mg/kg/injection, schedule: Q04DX003 (ip), vehicle: Klucel (hydroxypropylcellulose) (HPC)
[9] = dose: 200.0 mg/kg/injection, schedule: Q04DX003 (ip), vehicle: Klucel (hydroxypropylcellulose) (HPC)
[10] = dose: 400.0 mg/kg/injection, schedule: Q04DX003 (ip), vehicle: Klucel (hydroxypropylcellulose) (HPC)
[11] = dose: 100.0 mg/kg/injection, schedule: Q04DX002 (ip), vehicle: saline with Tween-80
[12] = dose: 200.0 mg/kg/injection, schedule: Q04DX002 (ip), vehicle: saline with Tween-80
[13] = dose: 100.0 mg/kg/injection, schedule: Q01DX009 (ip), vehicle: saline
[14] = dose: 200.0 mg/kg/injection, schedule: Q01DX009 (ip), vehicle: saline
[15] = dose: 400.0 mg/kg/injection, schedule: Q01DX009 (ip), vehicle: saline
[16] = dose: 100.0 mg/kg/injection, schedule: Q04DX002 (ip), vehicle: Klucel (hydroxypropylcellulose) (HPC)
[17] = dose: 200.0 mg/kg/injection, schedule: Q04DX002 (ip), vehicle: Klucel (hydroxypropylcellulose) (HPC)
[18] = dose: 400.0 mg/kg/injection, schedule: Q04DX002 (ip), vehicle: Klucel (hydroxypropylcellulose) (HPC)

Measured: T/C

COC(=O)C1(C(=O)OC)NNC(=O)c2cc(Br)ccc2N1
inactive: [1] 101 % of control | [2] 89 % of control | [3] 95 % of control

COC(=O)C(=O)c1ccccc1
inactive: [4] 101 % of control | [5] 100 % of control | [6] 89 % of control

O=C(Nc1nccs1)C(F)(F)F
inactive: [2] 109 % of control | [3] 109 % of control | [7] 102 % of control

CC(=O)Nc1cccc(OCCCOc2cccc(C(=N)N)c2)c1
inactive: dose: 50.0 mg/kg/injection, schedule: Q01DX009 (ip), vehicle: Klucel (hydroxypropylcellulose) (HPC) 103 % of control | dose: 100.0 mg/kg/injection, schedule: Q01DX009 (ip), vehicle: Klucel (hydroxypropylcellulose) (HPC) 100 % of control | dose: 200.0 mg/kg/injection, schedule: Q01DX009 (ip), vehicle: Klucel (hydroxypropylcellulose) (HPC) 94 % of control

O=P(CCCCCCCCCCP(=O)(c1ccccc1)c1ccccc1)(c1ccccc1)c1ccccc1
inactive: [2] 91 % of control | [3] 92 % of control | [7] 92 % of control

O=C(O)/C=C/C(=O)N1Cc2cc3ccccc3nc2C1
inactive: dose: 10.0 mg/kg/injection, schedule: Q04DX003 (ip), vehicle: saline 99 % of control | dose: 20.0 mg/kg/injection, schedule: Q04DX003 (ip), vehicle: saline 99 % of control | dose: 40.0 mg/kg/injection, schedule: Q04DX003 (ip), vehicle: saline 105 % of control | dose: 80.0 mg/kg/injection, schedule: Q04DX003 (ip), vehicle: saline 100 % of control | dose: 160.0 mg/kg/injection, schedule: Q04DX003 (ip), vehicle: saline 96 % of control

[N-]=Cc1c(O)cccc1Cl.[N-]=Cc1cc(Cl)ccc1O.[Ni+2]
inactive: dose: 6.25 mg/kg/injection, schedule: Q01DX009 (ip), vehicle: Klucel (hydroxypropylcellulose) (HPC) 96 % of control | dose: 12.5 mg/kg/injection, schedule: Q01DX009 (ip), vehicle: Klucel (hydroxypropylcellulose) (HPC) 93 % of control | dose: 25.0 mg/kg/injection, schedule: Q01DX009 (ip), vehicle: Klucel (hydroxypropylcellulose) (HPC) 95 % of control | [8] 97 % of control | [9] 87 % of control | [10] 86 % of control

O=C(O)c1ccc2c(=O)[nH][nH]c(=O)c2c1
inactive: dose: 87.5 mg/kg/injection, schedule: Q01DX009 (ip), vehicle: Klucel (hydroxypropylcellulose) (HPC) 101 % of control | dose: 175.0 mg/kg/injection, schedule: Q01DX009 (ip), vehicle: Klucel (hydroxypropylcellulose) (HPC) 96 % of control | dose: 350.0 mg/kg/injection, schedule: Q01DX009 (ip), vehicle: Klucel (hydroxypropylcellulose) (HPC) 102 % of control

O=[N+]([O-])c1ccccc1C=Nc1ccccc1O
inactive: [8] 103 % of control | [9] 97 % of control | [10] 94 % of control

Nc1ccc(S(=O)(=O)c2ccc(NCCc3ccccn3)cc2)cc1
inactive: dose: 100.0 mg/kg/injection, schedule: Q04DX003 (ip), vehicle: saline with Tween-80 97 % of control | dose: 200.0 mg/kg/injection, schedule: Q04DX003 (ip), vehicle: saline with Tween-80 105 % of control | dose: 400.0 mg/kg/injection, schedule: Q04DX003 (ip), vehicle: saline with Tween-80 100 % of control

CC(=O)NC1CCC(/C=C(\C#N)C2CCC(C)CC2)CC1 (centres undefined)
inactive: [11] 87 % of control | [12] 93 % of control

O=C1O/C(=C/c2ccccc2)C2CCCCC12 (centres undefined)
inactive: [13] 90 % of control | dose: 100.0 mg/kg/injection, schedule: Q04DX003 (ip), vehicle: saline 105 % of control | [14] 93 % of control | dose: 200.0 mg/kg/injection, schedule: Q04DX003 (ip), vehicle: saline 93 % of control | [15] 95 % of control | dose: 400.0 mg/kg/injection, schedule: Q04DX003 (ip), vehicle: saline 95 % of control

COc1c(C)c2c(c(O)c1C/C=C(\C)CCC(=O)O)C(=O)OC2
inactive: dose: 12.5 mg/kg/injection, schedule: Q01DX001 (ip), vehicle: saline 96 % of control | dose: 25.0 mg/kg/injection, schedule: Q01DX001 (ip), vehicle: saline 100 % of control | dose: 25.0 mg/kg/injection, schedule: Q01DX009 (ip), vehicle: saline 102 % of control | [1] 103 % of control | dose: 50.0 mg/kg/injection, schedule: Q01DX009 (ip), vehicle: saline 98 % of control | [2] 100 % of control | [13] 107 % of control | [16] 104 % of control | [3] 100 % of control | [14] 118 % of control | [17] 112 % of control | [7] 100 % of control | [15] 124 % of control | [18] 112 % of control

CNC1=C(C)C(=O)C2=C(C1=O)C(COC(N)=O)C1(O)C3C(CN21)N3C (centres undefined)
inactive: dose: 6.6 mg/kg/injection, schedule: Q01DX001 (ip), vehicle: alcohol 100 % of control | dose: 15.0 mg/kg/injection, schedule: Q01DX001 (ip), vehicle: acetone 104 % of control

CCOC(=O)C(CCC#N)(CCC(=O)OC)C(C)=O (centres undefined)
inactive: [11] 97 % of control | [12] 116 % of control | dose: 400.0 mg/kg/injection, schedule: Q04DX002 (ip), vehicle: saline with Tween-80 94 % of control

c1ccc(CCc2ccncc2)cc1
inactive: [4] 87 % of control | [5] 88 % of control | [6] 86 % of control

CC(C)(C)C(O)C1CCC(C(O)C(C)(C)C)S1(=O)=O (centres undefined)
inactive: dose: 50.0 mg/kg/injection, schedule: Q04DX003 (ip), vehicle: Klucel (hydroxypropylcellulose) (HPC) 100 % of control | [8] 104 % of control | [9] 98 % of control | [10] 100 % of control

COc1ccc(NC(=O)NCc2cccc(Cl)c2)cc1
inactive: dose: 50.0 mg/kg/injection, schedule: Q04DX002 (ip), vehicle: Klucel (hydroxypropylcellulose) (HPC) 100 % of control | [16] 103 % of control and 107 % of control | [17] 98 % of control | [18] 110 % of control and 92 % of control

c1ccc([P+](c2ccccc2)(c2ccccc2)C2CN=NC2)cc1
inactive: dose: 10.0 mg/kg/injection, schedule: Q01DX001 (ip), vehicle: saline 103 % of control | dose: 20.0 mg/kg/injection, schedule: Q01DX001 (ip), vehicle: saline 108 % of control | dose: 40.0 mg/kg/injection, schedule: Q01DX001 (ip), vehicle: saline 112 % of control

CN(CCC#N)C1=CCCCCC1
inactive: [2] 101 % of control | [3] 97 % of control

FC1(F)SC2CC/C=C\CCC2C1(F)F (centres undefined)
inactive: dose: 0.75 mg/kg/injection, schedule: Q04DX003 (ip), vehicle: Klucel (hydroxypropylcellulose) (HPC) 90 % of control | dose: 1.5 mg/kg/injection, schedule: Q01DX009 (ip), vehicle: Klucel (hydroxypropylcellulose) (HPC) 96 % of control | dose: 1.5 mg/kg/injection, schedule: Q04DX003 (ip), vehicle: Klucel (hydroxypropylcellulose) (HPC) 98 % of control | dose: 3.0 mg/kg/injection, schedule: Q01DX009 (ip), vehicle: Klucel (hydroxypropylcellulose) (HPC) 102 % of control | dose: 3.0 mg/kg/injection, schedule: Q04DX003 (ip), vehicle: Klucel (hydroxypropylcellulose) (HPC) 102 % of control | dose: 3.12 mg/kg/injection, schedule: Q04DX003 (ip), vehicle: Klucel (hydroxypropylcellulose) (HPC) 86 % of control | dose: 12.0 mg/kg/injection, schedule: Q04DX003 (ip), vehicle: Klucel (hydroxypropylcellulose) (HPC) 88 % of control

C=CCSc1ccccc1C(=O)O
inactive: dose: 50.0 mg/kg/injection, schedule: Q01DX001 (ip), vehicle: carboxymethylcellulose (CMC) 122 % of control | dose: 100.0 mg/kg/injection, schedule: Q01DX001 (ip), vehicle: carboxymethylcellulose (CMC) 95 % of control | dose: 200.0 mg/kg/injection, schedule: Q01DX001 (ip), vehicle: carboxymethylcellulose (CMC) 106 % of control | dose: 400.0 mg/kg/injection, schedule: Q01DX001 (ip), vehicle: carboxymethylcellulose (CMC) 106 % of control

— PubChem BioAssay AID248 (DTP/NCI, 2004)
